Measured values as given in PMC10294756 (Journal of Enzyme Inhibition and Medicinal Chemistry, 2023).
Read-outs that look alike come from different tables or passages of the source.

What was measured:
HepG2 = experiment: MTT assay, HepG2 cells; format: cell-based, human; settings: for IC50: read-out: IC50 HepG2
HuH7 = experiment: MTT assay, HuH7 cells; format: cell-based, human; settings: read-out: IC50 HuH7
SMMC-7721 = experiment: MTT assay, SMMC-7721 cells; format: cell-based, human; settings: read-out: IC50 SMMC-7721
LO2 = experiment: MTT assay, normal hepatocyte LO2; format: cell-based, human
[1] = tested on: HCC cell lines (HepG2, HuH7, and SMMC-7721); experiment: MTT assay, results stated over the three HCC cell lines; format: cell-based; settings: Homo sapiens, 48 h, read-out: IC50 against HCC cells (span over cell lines)
[2] = Homo sapiens, L02, 48 h, read-out: IC50 LO2, normal liver cell line, MTT, 48 h
[3] = read-out: IC50 LO2, normal liver cell line, MTT, 48 h
[4] = MTT, 48 h, mean ± SD of three experiments

Row | Compound | IC50 (HepG2; Homo sapiens, HepG2, 48 h) [µM] | IC50 (HuH7; Homo sapiens, Huh-7, 48 h) [µM] | IC50 (SMMC-7721; Homo sapiens, SMMC-7721, 48 h) [µM] | IC50 (LO2; [2]) [µM] | IC50 [1] [µM] | IC50 (LO2; [3]) [µM] | IC50 (HepG2; [4]) [µM] | IC50 (HuH7; [4]) [µM] | IC50 (SMMC-7721; [4]) [µM] | effect on the inhibition of HepG2 cell proliferation by TMHA37 (HepG2; 20 μM CDIM8, 5 μM TMHA37, 48 h, MTT)
1 | Cc1cc(Nc2ccc(C(=O)N/N=C/c3cc(Br)cs3)cc2)c2cccc(O)c2n1 [7C, (E)-N'-((4-bromothiophen-2-yl)methylene)-4-((8-hydroxy-2-methylquinolin-4-yl)amino)benzohydrazide] | 16.4 ± 0.7 | 21.2 ± 2.28 | 16 ± 0.54 | 21 ± 1.18 | < 30 |  |  |  |  | 
2 | Cc1cc(Nc2ccc(C(=O)N/N=C/c3cc(C(F)(F)F)ccc3F)cc2)c2cccc(O)c2n1 [7P, (E)-N'-(2-fluoro-5-(trifluoromethyl)benzylidene)-4-((8-hydroxy-2-methylquinolin-4-yl)amino)benzohydrazide] | 7.78 ± 1.33 | 19.3 ± 1.49 | 8.82 ± 0.41 | 18 ± 1.55 | 7.78 to 19.3 |  |  |  |  | 
3 | COc1cc(/C=N/NC(=O)c2ccc(Nc3cc(C)nc4c(O)cccc34)cc2)cc(OC)c1 [7J, (E)-N’-(3,5-dimethoxybenzylidene)-4-((8-hydroxy-2-methylquinolin-4-yl)amino)benzohydrazide] | 27.5 ± 2.12 | 26 ± 0.54 | 37.2 ± 2.23 |  |  |  |  |  |  | 
4 | Cc1cc(Nc2ccc(C(=O)N/N=C/c3ccccc3Cl)cc2)c2cccc(O)c2n1 [7F, (E)-N'-(2-chlorobenzylidene)-4-((8-hydroxy-2-methylquinolin-4-yl)amino)benzohydrazide] | 13.6 ± 2.14 | 22.3 ± 1.88 | 17.9 ± 1.03 | 15 ± 2.16 |  |  |  |  |  | 
5 | COc1ccc(/C=N/NC(=O)c2ccc(Nc3cc(C)nc4c(O)cccc34)cc2)c2ccccc12 [7T, (E)-4-((8-hydroxy-2-methylquinolin-4-yl)amino)-N'-((4-methoxynaphthalen-1-yl)methylene)benzohydrazide] | 15 ± 4.75 | 20.9 ± 2.46 | 23.9 ± 2.16 | > 60 | 15 to 23.9 | 60.7 ± 0.98 |  |  |  | 
6 | Cc1cc(Nc2ccc(C(=O)N/N=C/c3ccc(F)cc3Br)cc2)c2cccc(O)c2n1 [7O, (E)-N'-(2-bromo-4-fluorobenzylidene)-4-((8-hydroxy-2-methylquinolin-4-yl)amino)benzohydrazide] | 15.7 ± 1.31 | 13.7 ± 0.61 | 16.9 ± 1.97 | 69.2 ± 4.58 |  |  |  |  |  | 
7 | Cc1cc(Nc2ccc(C(=O)N/N=C/c3csc4ccccc34)cc2)c2cccc(O)c2n1 [7V, (E)-N'-(benzo[b]thiophen-3-ylmethylene)-4-((8-hydroxy-2-methylquinolin-4-yl)amino)benzohydrazide] | 13.7 ± 2.85 | 20.4 ± 2.75 | 21.7 ± 1.96 | 3.06 ± 0.11 |  |  |  |  |  | 
8 | Cc1cc(Nc2ccc(C(=O)N/N=C/c3ccsc3)cc2)c2cccc(O)c2n1 [7A, (E)-4-((8-hydroxy-2-methylquinolin-4-yl)amino)-N'-(thiophen-3-ylmethylene)benzohydrazide] | 30.8 ± 2.52 | 31.7 ± 3.6 | 52.8 ± 1.56 |  | 30.8 to 52.8 |  |  |  |  | 
9 | Cc1cc(Nc2ccc(C(=O)N/N=C/c3ccc4ccccc4c3)cc2)c2cccc(O)c2n1 [7S, (E)-4-((8-hydroxy-2-methylquinolin-4-yl)amino)-N'-(naphthalen-2-ylmethylene)benzohydrazide] | 15.6 ± 1.65 | 16.2 ± 0.66 | 22.3 ± 0.98 | > 60 | 15 to 23.9 | 66.3 ± 8.68 |  |  |  | 
10 | Cc1cc(Nc2ccc(C(=O)N/N=C/c3sccc3Br)cc2)c2cccc(O)c2n1 [7B, (E)-N'-((3-bromothiophen-2-yl)methylene)-4-((8-hydroxy-2-methylquinolin-4-yl)amino)benzohydrazide] | 16.2 ± 1.53 | 18 ± 1.26 | 26.1 ± 1 | > 90 | < 30 |  |  |  |  | 
11 | Cc1cc(Nc2ccc(C(=O)N/N=C/c3ccc(Br)c(F)c3)cc2)c2cccc(O)c2n1 [7M, (E)-N'-(4-bromo-3-fluorobenzylidene)-4-((8-hydroxy-2-methylquinolin-4-yl)amino)benzohydrazide] | 15.8 ± 3.68 | 23.8 ± 1.82 | 18.2 ± 1.94 | > 90 | 15.8 to 27.6 |  |  |  |  | 
12 | Cc1cc(Nc2ccc(C(=O)N/N=C/c3ccc(C(F)(F)F)cc3)cc2)c2cccc(O)c2n1 [7H, (E)-4-((8-hydroxy-2-methylquinolin-4-yl)amino)-N'-(4-(trifluoromethyl)benzylidene)benzohydrazide] | 18.1 ± 0.98 | 23.3 ± 0.33 | 27.68 ± 0.25 | > 90 |  |  |  |  |  | 
13 | Cc1cc(Nc2ccc(C(=O)N/N=C/c3cccc(F)c3F)cc2)c2cccc(O)c2n1 [7L, (E)-N'-(2,3-difluorobenzylidene)-4-((8-hydroxy-2-methylquinolin-4-yl)amino)benzohydrazide] | 21 ± 1.51 | 15.9 ± 2.8 | 25.4 ± 1.63 | 25 ± 3.16 |  |  |  |  |  | 
14 | Cc1cc(Nc2ccc(C(=O)N/N=C/c3ccc(F)c(Br)c3)cc2)c2cccc(O)c2n1 [7N, (E)-N'-(3-bromo-4-fluorobenzylidene)-4-((8-hydroxy-2-methylquinolin-4-yl)amino)benzohydrazide] | 27.6 ± 0.81 | 15.4 ± 2.09 | 21.1 ± 1.01 | > 90 | 15.8 to 27.6 |  |  |  |  | 
15 | CC1=C(O)C(=O)C=C2C1=CC=C1[C@@]2(C)CC[C@@]2(C)[C@@H]3C[C@](C)(C(=O)O)CC[C@]3(C)CC[C@]12C [Celastrol, reference compound] | 18.6 ± 1.01 | 34.9 ± 2.21 | 16 ± 3.28 |  |  |  |  |  |  | 
16 | Cc1cc(Nc2ccc(C(=O)N/N=C/c3cc4ccccc4nc3Cl)cc2)c2cccc(O)c2n1 [7U, (E)-N'-((2-chloroquinolin-3-yl)methylene)-4-((8-hydroxy-2-methylquinolin-4-yl)amino)benzohydrazide] | 17.6 ± 1.09 | 30.9 ± 3.39 | 19.9 ± 0.94 | 18 ± 1.29 |  |  |  |  |  | 
17 | N.N.[Cl][Pt][Cl] [CDDP, Cisplatinum, reference compound] |  |  |  |  |  | 4.23 ± 0.52 | 2.21 ± 0.35 | 3.69 ± 0.55 | 1.58 ± 0.08 | 
18 | C#Cc1ccc(/C=N/NC(=O)c2ccc(Nc3cc(C)nc4c(O)cccc34)cc2)cc1 [7I, (E)-N'-(4-ethynylbenzylidene)-4-((8-hydroxy-2-methylquinolin-4-yl)amino)benzohydrazide] | 28.3 ± 1.17 | 12.8 ± 0.36 | 33.9 ± 3.58 |  |  |  |  |  |  | 
19 | Cc1cc(Nc2ccc(C(=O)N/N=C/c3cccc(C(F)(F)F)c3)cc2)c2cccc(O)c2n1 [7G, (E)-4-((8-hydroxy-2-methylquinolin-4-yl)amino)-N'-(3-(trifluoromethyl)benzylidene)benzohydrazide] | 15.5 ± 1.45 | 6.88 ± 2.04 | 20.6 ± 2.56 | 19.9 ± 2.01 |  |  |  |  |  | 
20 | COc1ccc(F)c(/C=N/NC(=O)c2ccc(Nc3cc(C)nc4c(O)cccc34)cc2)c1 [7K, (E)-N'-(2-fluoro-5-methoxybenzylidene)-4-((8-hydroxy-2-methylquinolin-4-yl)amino)benzohydrazide] | 20.1 ± 1.18 | 34.6 ± 2.97 | 28.2 ± 2.06 |  |  |  |  |  |  | 
21 | CSc1ccc(/C=N/NC(=O)c2ccc(Nc3cc(C)nc4c(O)cccc34)cc2)cc1 [7E, (E)-4-((8-hydroxy-2-methylquinolin-4-yl)amino)-N'-(4-(methylthio)benzylidene)benzohydrazide] | 17.7 ± 0.3 | 25.6 ± 1.81 | 22.94 ± 0.03 | > 90 |  |  |  |  |  | 
22 | Cc1cc(Nc2ccc(C(=O)N/N=C/c3cccc(Br)n3)cc2)c2cccc(O)c2n1 [7R, (E)-N'-((6-bromopyridin-2-yl)methylene)-4-((8-hydroxy-2-methylquinolin-4-yl)amino)benzohydrazide] | 30 ± 0.92 | 32.2 ± 4.3 | 45.8 ± 0.64 |  | 30 to 45.8 |  |  |  |  | 
23 | Oc1ccc(C(c2c[nH]c3ccccc23)c2c[nH]c3ccccc23)cc1 [CDIM8, reference compound] |  |  |  |  |  |  |  |  |  | significantly reversed the inhibitory effect of TMHA37 on HepG2 cell proliferation
24 | Cc1cc(Nc2ccc(C(=O)N/N=C/c3ccc(F)c(C(F)(F)F)c3)cc2)c2cccc(O)c2n1 [7Q, (E)-N'-(4-fluoro-3-(trifluoromethyl)benzylidene)-4-((8-hydroxy-2-methylquinolin-4-yl)amino)benzohydrazide] | 12.7 ± 1.61 | 29.2 ± 3.24 | 21.6 ± 1.13 | 4.82 ± 0.67 |  |  |  |  |  | 
